Results taken from patent US20230312550A1, “N-(2-(4-CYANOTHIAZOLIDIN-3-YL)-2-OXOETHYL)-QUINOLINE-4-CARBOXAMIDES” (AstraZeneca AB, priority 2020, published 2023).
In brackets after ≈: the same amount, converted by molar mass.

Tests used:
FAP = FAP (Homo sapiens (Human), UniProt Q12884); assay: hFAP inhibition assay; format: biochemical; conditions: hFAP […], Ala-Pro-AMC 20 μM; n = 1 or geometric mean n = 2-3
Experimental: 384 low volume black plates (Greiner #784076) were used. 4 μL, 0.48 nM enzyme solution (100 mM Tris HCl, 100 mM NaCl, 0.05% Chaps, pH 7.4) was added to 40 nL compounds (in DMSO) at 10 CR, 3 fold dilution series from 50 μM FAC. Plates were incubated for 15 min at rt in dark. 4 μL, 40 μM substrate solution (100 mM Tris HCl, 100 mM NaCl, 0.05% Chaps, pH 7.4) was added to each well. Plates were centrifuged at 1000 rpm and incubated for 30 min at rt in dark. The plates were read on a PHERAstar® reader with excitation 340 nm and emission 460 nm. Data were analyzed in Genedata Screener®. IC50 values were determined by plotting % inhibition versus log compound concentration and using a one site dose response model.

[1] = biological target: human Fibroblast activation protein alpha (hFAP) (Homo sapiens (Human), UniProt Q12884); assay: hFAP inhibition assay (tight binders); format: biochemical; conditions: Ala-Pro-AMC 20 μM, n = 1 or geometric mean n = 2-6; further: hFAP 2.4 pM
Experimental: The plates were read on a PHERAstar® reader with excitation 340 nm and emission 460 nm. Data were analyzed in Genedata Screener®. IC50 values were determined by plotting % inhibition versus log compound concentration and using a one site dose response model.

hFAP (M39-A757) = hFAP (M39-A757) (Homo sapiens (Human), UniProt Q12884); assay: hFAP binding assay (surface plasmon resonance); conditions: SPR, 20° C.; for hFAP Binding assay k(off) / hFAP Binding assay k(on): single cycle kinetics; for Kd: n = 1 or geometric mean n = 2-4
[2] = biological target: Prolyl endopeptidase, Prolyl Oligopeptidase (hPREP) (Homo sapiens (Human), UniProt P48147); assay: hPrep inhibition assay; format: biochemical; conditions: hPREP 0.6 nM, Z-Gly-Pro-amino-methylcoumarin 50 μM; read-out: PREP IC50
In short: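 Fluorogenic read-out (340 nm excitation, 460 nm emission) after 20 min at rt, using 50 μM final Z-Gly-Pro-aminomethylcoumarin and 0.6 nM final enzyme, following 15 min compound preincubation. Buffer pH 7.5 with glutathione and Triton X-100. IC50 via one-site model on % inhibition vs log concentration.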

Kinetic solubility = conditions: kinetic from dmso stock, Solubility, kinetic solubility; n = 1 or average of n = 2-3
Experimental: Kinetic solubility was measured as described in Comput Aided Mol Des 2015, 29, 795.

[3] = Metabolic stability in rat hepatocytes (rHep); conditions: n = 1 or geometric mean of n = 2-3
[4] = Metabolic stability in human liver microsomes (HLM); conditions: human, HLM CLint, n = 1 or average of n = 2-3
Experimental: Metabolic stability in HLM was measured as described in J Comput Aided Mol Des 2015, 29, 795.

Sequence of hFAP (M39-A757) (Q12884 39-757): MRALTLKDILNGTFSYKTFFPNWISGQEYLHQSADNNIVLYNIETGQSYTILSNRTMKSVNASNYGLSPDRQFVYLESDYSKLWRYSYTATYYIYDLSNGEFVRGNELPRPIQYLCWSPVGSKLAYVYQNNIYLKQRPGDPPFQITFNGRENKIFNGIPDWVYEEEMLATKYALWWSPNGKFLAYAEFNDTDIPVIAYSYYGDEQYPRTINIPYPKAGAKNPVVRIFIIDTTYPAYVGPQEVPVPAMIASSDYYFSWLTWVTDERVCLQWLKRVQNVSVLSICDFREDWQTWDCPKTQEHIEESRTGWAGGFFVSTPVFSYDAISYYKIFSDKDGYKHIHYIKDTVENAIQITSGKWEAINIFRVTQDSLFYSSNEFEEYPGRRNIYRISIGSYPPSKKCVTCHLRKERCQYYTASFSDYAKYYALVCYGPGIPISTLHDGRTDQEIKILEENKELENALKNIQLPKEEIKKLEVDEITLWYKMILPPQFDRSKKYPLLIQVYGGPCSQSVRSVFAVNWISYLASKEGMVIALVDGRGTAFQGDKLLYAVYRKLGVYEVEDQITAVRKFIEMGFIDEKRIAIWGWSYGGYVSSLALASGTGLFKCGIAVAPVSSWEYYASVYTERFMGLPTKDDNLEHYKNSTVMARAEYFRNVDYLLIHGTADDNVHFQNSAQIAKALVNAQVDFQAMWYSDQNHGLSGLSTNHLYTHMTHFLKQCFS
Sequence of Prolyl endopeptidase, Prolyl Oligopeptidase (hPREP) (P48147 whole entry): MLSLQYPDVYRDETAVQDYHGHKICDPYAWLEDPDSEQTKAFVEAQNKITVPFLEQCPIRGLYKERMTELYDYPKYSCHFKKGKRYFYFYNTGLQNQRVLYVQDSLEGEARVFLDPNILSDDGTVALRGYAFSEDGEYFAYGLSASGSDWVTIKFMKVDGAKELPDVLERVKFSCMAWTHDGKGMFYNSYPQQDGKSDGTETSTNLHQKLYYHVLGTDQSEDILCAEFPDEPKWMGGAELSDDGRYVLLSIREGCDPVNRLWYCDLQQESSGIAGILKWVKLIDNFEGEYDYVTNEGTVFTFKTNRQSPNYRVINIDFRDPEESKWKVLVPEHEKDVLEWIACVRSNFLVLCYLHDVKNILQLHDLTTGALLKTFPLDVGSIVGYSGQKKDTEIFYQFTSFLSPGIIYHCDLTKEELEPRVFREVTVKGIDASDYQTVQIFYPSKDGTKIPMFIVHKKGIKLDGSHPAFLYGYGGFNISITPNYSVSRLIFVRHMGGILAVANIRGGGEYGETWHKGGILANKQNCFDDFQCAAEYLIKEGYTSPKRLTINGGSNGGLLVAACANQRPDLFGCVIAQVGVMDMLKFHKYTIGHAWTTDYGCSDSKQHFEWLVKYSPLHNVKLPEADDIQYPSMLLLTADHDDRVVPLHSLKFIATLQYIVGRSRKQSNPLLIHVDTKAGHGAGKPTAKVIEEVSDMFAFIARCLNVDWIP
Sequence of FAP (Q12884 38-760): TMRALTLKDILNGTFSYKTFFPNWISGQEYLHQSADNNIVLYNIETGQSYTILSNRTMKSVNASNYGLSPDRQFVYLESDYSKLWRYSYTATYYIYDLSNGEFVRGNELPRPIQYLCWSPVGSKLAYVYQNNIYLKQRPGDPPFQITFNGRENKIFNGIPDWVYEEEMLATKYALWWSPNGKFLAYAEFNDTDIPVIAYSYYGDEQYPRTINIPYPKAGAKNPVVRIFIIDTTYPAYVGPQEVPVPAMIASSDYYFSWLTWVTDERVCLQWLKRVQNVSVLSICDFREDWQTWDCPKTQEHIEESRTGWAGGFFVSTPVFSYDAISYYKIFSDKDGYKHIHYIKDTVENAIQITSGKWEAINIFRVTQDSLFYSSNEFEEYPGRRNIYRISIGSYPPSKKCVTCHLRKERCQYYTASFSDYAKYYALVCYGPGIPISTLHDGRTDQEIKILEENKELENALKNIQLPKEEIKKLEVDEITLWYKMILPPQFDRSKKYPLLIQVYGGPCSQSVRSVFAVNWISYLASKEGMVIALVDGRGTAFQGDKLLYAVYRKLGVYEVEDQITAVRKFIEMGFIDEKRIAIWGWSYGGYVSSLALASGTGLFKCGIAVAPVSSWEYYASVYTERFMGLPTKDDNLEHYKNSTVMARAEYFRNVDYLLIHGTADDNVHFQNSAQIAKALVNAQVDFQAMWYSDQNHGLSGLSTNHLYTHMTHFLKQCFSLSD
Sequence of human Fibroblast activation protein alpha (hFAP) (Q12884 38-760): as above

SMILES | IC50 (FAP) [nM] | IC50 [1] [nM] | hFAP Binding assay k(off) (hFAP (M39-A757)) [s⁻¹] | hFAP Binding assay k(on) (hFAP (M39-A757)) [M⁻¹ s⁻¹] | Kd (hFAP (M39-A757)) [nM] | IC50 [2] [nM] | solubility (Kinetic solubility) [µM] | rHep CLint [3] [μL/min/1E6] | microsomal CLint [4] [µL/min/mg]
N#C[C@@H]1CSCN1C(=O)CNC(=O)c1ccnc2ccc(N3CCCC[C@H](F)C3)cc12 [Example 60, N-(2-((R)-4-Cyanothiazolidin-3-yl)-2-oxoethyl)-6-((S)-3-fluoroazepan-1-yl)quinoline-4-carboxamide] | 0.22 | 0.14 | 0.00017 | 1700000 | 0.099 | 86 | 160 (≈ 70.6 µg/mL) | 120 | 210
N#C[C@@H]1CSCN1C(=O)CNC(=O)c1ccnc2ccc(-c3cccnc3)cc12 [Example 126, (R)—N-(2-(4-Cyanothiazolidin-3-yl)-2-oxoethyl)-6-(pyridin-3-yl)quinoline-4-carboxamide] | 0.32 | 0.081 | 0.00021 | 1800000 | 0.11 | 260 | 400 (≈ 161 µg/mL) | 10 | 16
C[C@H]1COC[C@H](C)N1c1ccc2nccc(C(=O)NCC(=O)N3CSC[C@H]3C#N)c2c1 [Example 103, N-(2-((R)-4-Cyanothiazolidin-3-yl)-2-oxoethyl)-6-((3S,5S)-3,5-dimethyl-morpholino)quinoline-4-carboxamide] | 0.31 | 0.11 | 0.00010 | 3000000 | 0.033 | 580 | > 1000 | 23 | 54
N#C[C@@H]1CSCN1C(=O)CNC(=O)c1ccnc2ccc(N3CC(F)(F)C3)cc12 [Example 23, (R)—N-(2-(4-Cyanothiazolidin-3-yl)-2-oxoethyl)-6-(3,3-difluoroazetidin-1-yl)quinoline-4-carboxamide] | 0.31 | 0.2 | 0.00018 | 2100000 | 0.085 | 160 | 63 (≈ 26.3 µg/mL) | 27 | 25
N#C[C@@H]1CSCN1C(=O)CNC(=O)c1ccnc2ccc(-c3cncnc3)cc12 [Example 127, (R)—N-(2-(4-Cyanothiazolidin-3-yl)-2-oxoethyl)-6-(pyrimidin-5-yl)-quinoline-4-carboxamide] | 0.38 | 0.16 | 0.0020 | 6000000 | 0.34 | 130 | 120 (≈ 48.5 µg/mL) | 8.2 | 11
C[C@@H]1CN(c2ccc3nccc(C(=O)NCC(=O)N4CSC[C@H]4C#N)c3c2)CCCO1 [Example 64, N-(2-((R)-4-Cyanothiazolidin-3-yl)-2-oxoethyl)-6-((R)-2-methyl-1,4-oxazepan-4-yl)quinoline-4-carboxamide] | 0.28 | 0.085 | 0.00015 | 1300000 | 0.12 | 610 | 130 (≈ 57.1 µg/mL) | 29 | 56
C[C@H]1CCCN1c1ccc2nccc(C(=O)NCC(=O)N3CSC[C@H]3C#N)c2c1 [Example 65, N-(2-((R)-4-Cyanothiazolidin-3-yl)-2-oxoethyl)-6-((S)-2-methylpyrrolidin-1-yl)quinoline-4-carboxamide] | 0.28 | 0.17 | 0.00047 | 6700000 | 0.055 | 100 | 49 (≈ 20.1 µg/mL) | 110 | 150
Cc1ccc(C2CN(c3ccc4nccc(C(=O)NCC(=O)N5CSC[C@H]5C#N)c4c3)C2)cc1 [Example 183, (R)—N-(2-(4-Cyanothiazolidin-3-yl)-2-oxoethyl)-6-(3-(p-tolyl)azetidin-1-yl)quinoline-4-carboxamide] | 0.33 | 0.19 |  |  | 0.086 | 140 | 19 (≈ 8.96 µg/mL) | 19 | 49
CC1(C)CCN(c2ccc3nccc(C(=O)NCC(=O)N4CSC[C@H]4C#N)c3c2)C1 [Example 48, (R)—N-(2-(4-Cyanothiazolidin-3-yl)-2-oxoethyl)-6-(3,3-dimethylpyrrolidin-1-yl)quinoline-4-carboxamide] | 0.29 | 0.11 | 0.000089 | 1400000 | 0.067 | 170 | 18 (≈ 7.62 µg/mL) | 51 | 89
N#C[C@@H]1CSCN1C(=O)CNC(=O)c1ccnc2ccc(N3CC(c4ccc(F)cc4)C3)cc12 [Example 185, (R)—N-(2-(4-Cyanothiazolidin-3-yl)-2-oxoethyl)-6-(3-(4-fluorophenyl)-azetidin-1-yl)quinoline-4-carboxamide] | 0.23 | 0.12 |  |  | 0.043 | 130 | 7 (≈ 3.33 µg/mL) | 15 | 58
CC1CN(c2ccc3nccc(C(=O)NCC(=O)N4CSC[C@H]4C#N)c3c2)C1 [Example 25, (R)—N-(2-(4-Cyanothiazolidin-3-yl)-2-oxoethyl)-6-(3-methylazetidin-1-yl)-quinoline-4-carboxamide] | 0.41 | 0.3 | 0.00011 | 1400000 | 0.076 | 370 | 130 (≈ 51.4 µg/mL) | 14 | 23
N#C[C@@H]1CSCN1C(=O)CNC(=O)c1ccnc2ccc(N3CCCC[C@H]3CF)cc12 [Example 45, N-(2-((R)-4-Cyanothiazolidin-3-yl)-2-oxoethyl)-6-((S)-2-(fluoromethyl)-piperidin-1-yl)quinoline-4-carboxamide] | 0.2 | 0.14 | 0.00018 | 5400000 | 0.048 | 190 | 340 (≈ 150 µg/mL) | 160 | 260
N#C[C@@H]1CSCN1C(=O)CNC(=O)c1ccnc2ccc(N3C[C@@H](F)[C@H](F)C3)cc12 [Example 214, N-(2-((R)-4-Cyanothiazolidin-3-yl)-2-oxoethyl)-6-((3R,4R)-3,4-difluoro-pyrrolidin-1-yl)quinoline-4-carboxamide] | 0.2 | 0.079 | 0.000092 | 2900000 | 0.043 | 280 |  | 15 | 
C[C@@H]1COC[C@H](C)N1c1cc2c(C(=O)NCC(=O)N3CSC[C@H]3C#N)ccnc2cc1Br [Example 100, 7-Bromo-N-(2-((R)-4-cyanothiazolidin-3-yl)-2-oxoethyl)-6-((3S,5R)-3,5-dimethylmorpholino)quinoline-4-carboxamide] | 0.5 | 0.27 | 0.0022 | 3000000 | 0.73 | 170 | 36 (≈ 18.7 µg/mL) | 280 | 
